Test [1] can be described thus: inhibitors of Her2 kinase expression, dose response, cell-based, AlphaScreen, CellTiter-Glo viability (AID 742). As to conditions: human cells, Her2 expression AlphaScreen; CTG viability; at 9.62 µM (top of the series). (Alpha assays give light when donor and acceptor beads are brought close together.)
For test [2], the system named is human cells, Her2 expression AlphaScreen; CTG viability. The description is as above. Conditions: viability, CellTiter-Glo. (In general: ATP-based viability assays read luminescence as a measure of living cells.)

Structures are written as SMILES. Active and inactive are the calls of the source. How the calls were made is not given here. Where only a bound is given, the exact number is not on record here.

This is an account of results in PubChem BioAssay AID742 (SRMLSC, 2007).

The term EC50 denotes the concentration that produces a half-maximal response. Read a high EC50 as a need for much substance.

`CCOC(=O)C(C(=O)OCC)c1cc(Br)c2noc3c2c1C(=O)c1ccccc1-3`: in test [1], the Her2 inhibition was 18.8% (inactive). For the same molecule, in test [2], the concentration for a half-maximal effect (EC50) was over 9.62 µM.
The corresponding values for `O=C(NCC(=O)N(CCc1ccccc1)C(C(=O)NC1CCCC1)c1cccnc1)c1ccco1` (stereo not given) are -12.6% (inactive) and over 9.62 µM.
The corresponding values for `CCCCNC(=O)OCCNC(=O)NC` are -40% (inactive) and over 9.62 µM.
For the molecule `CCn1c(SCC(=O)C(C)(C)C)nnc1-c1cnccn1`, the Her2 inhibition in test [1] was 2.82% (inactive). Besides, in test [2], the EC50 is over 9.62 µM.
The corresponding values for `Cc1ccc(C)n1-c1ccc(N2CCOCC2)nc1` are 3.86% (inactive) and over 9.62 µM.
The corresponding values for `Clc1ccc(CSC2=NCCCN2)cc1Cl` are -30.5% (inactive) and over 9.62 µM.
The corresponding values for `CCCCn1c(O)c(C(C)=NCCN2CCCCC2)c(=O)[nH]c1=O` are -17.4% (inactive) and over 9.62 µM.
As for `CC1=CC(C)(C)Nc2ccc(OC(=O)c3ccco3)cc21`, in test [1], the Her2 inhibition is 1.48% (inactive). In addition, the EC50 in test [2] is over 9.62 µM.
The corresponding values for `O=C(c1n[nH]c(=O)c2ccccc12)N1CCN(c2ccccc2)CC1` are -18.2% (inactive) and over 9.62 µM.
The corresponding values for `CS(=O)(=O)c1ncc(Cl)c(C(=O)Nc2ccc(N3CCOCC3)cc2)n1` are 19.8% (inactive) and over 9.62 µM.
Consider `Cc1ccc(-n2nc(C)c3c2OC(N)=C(C#N)C3c2ccc(F)cc2)cc1` (stereo not given), for which the Her2 inhibition in test [1] was -1.17% (inactive). The molecule further displayed an EC50 in test [2] of over 9.62 µM.
Consider `N=c1n(CCO)c2ccccc2n1CCOc1ccc(Cl)cc1Cl`, for which the Her2 inhibition in test [1] was -2.09% (inactive). In test [2], this molecule came in with a half-maximal effective concentration (EC50) of over 9.62 µM.
As to `O=S(=O)(NCc1ccco1)c1cccc2cccnc12`, the Her2 inhibition in test [1] was -18.5% (inactive). The molecule further gave an EC50 in test [2] of over 9.62 µM.
`Cc1ccc(C(c2sc3nc(C)nn3c2O)N2CCN(c3ccccc3F)CC2)cc1` (stereo not given): in test [1], the Her2 inhibition was -4.31% (inactive). In addition, the EC50 in test [2] was over 9.62 µM.
The corresponding values for `CCNC(=O)c1nc[nH]c1C(=O)NCC` are 2.98% (inactive) and over 9.62 µM.
Consider `CCN1C(=O)CC(C(=O)Nc2ccc(F)cc2)SC1=Nc1ccc2c(c1)OCO2` (stereo not given), for which the Her2 inhibition in test [1] is -33.1% (inactive). In addition, the EC50 in test [2] is over 9.62 µM.
With `CC(=O)Nc1ccc(NS(=O)(=O)c2cc(C)sc2C)cc1`, the Her2 inhibition in test [1] was 0.09% (inactive). The same molecule had an EC50 in test [2] of over 9.62 µM.
The corresponding values for `N#C/C(=C/c1ccc(N2CCCCCC2)o1)c1ccc(F)cc1` are 4.22% (inactive) and over 9.62 µM.
The corresponding values for `CCOc1ccccc1N(CC(=O)N1CCOCC1)S(=O)(=O)c1ccccc1` are 3.98% (inactive) and over 9.62 µM.
The corresponding values for `CCOC(=O)N1CCN(C(=O)CSCc2nc(-c3ccccc3C)oc2C)CC1` are -0.97% (inactive) and over 9.62 µM.
With `COc1cc2c(C#N)c(N3CCN(c4ccccc4OC)CC3)nc(N)c2c(N)n1`, the Her2 inhibition in test [1] is -7.21% (inactive). The molecule also gave an EC50 in test [2] of over 9.62 µM.
The corresponding values for `CN1/C(=C/C(=O)c2nc(S(C)(=O)=O)ncc2Cl)C(C)(C)c2ccccc21` are 23.3% (inactive) and over 9.62 µM.
Turning to `COc1ccccc1-c1cc(C(F)(F)F)nc(S(=O)(=O)CCCC(=O)NC(C)C)n1`, the Her2 inhibition in test [1] was 5% (inactive). This molecule also showed an EC50 in test [2] of over 9.62 µM.
On to `O=S1(=O)Nc2c(ccc3cccnc23)-c2ccccc21`, for which the Her2 inhibition in test [1] was 12.6% (inactive). The same molecule registered an EC50 in test [2] of over 9.62 µM.
The corresponding values for `N#CCCS(=O)(=O)c1nnnn1-c1ccccc1` are 3.51% (inactive) and over 9.62 µM.
As for `Cn1nc(C(=O)Nc2c(-c3ccccc3)nc3sccn23)c2ccccc2c1=O`, the Her2 inhibition in test [1] is -13.2% (inactive). The molecule also yielded an EC50 in test [2] of over 9.62 µM.
Regarding `CCOc1ccc(-c2[nH]ncc2Oc2ccccc2OCC)c(O)c1`, the Her2 inhibition in test [1] was 1.97% (inactive). Moreover, the EC50 in test [2] was over 9.62 µM.
The corresponding values for `OCCN1CCN(CCCN2c3ccccc3Sc3ccc(C(F)(F)F)cc32)CC1` are 12.6% (inactive) and over 9.62 µM.
The corresponding values for `Cc1cc2nnc(SC(C)C#N)n2c2ccccc12` (stereo not given) are -10.1% (inactive) and over 9.62 µM.
The corresponding values for `CC(=NCC1CCCO1)c1c(O)n(-c2ccccc2)c(=O)[nH]c1=O` (stereo not given) are -6.53% (inactive) and over 9.62 µM.
On to `O=C1/C(=N/n2cnnc2)c2ccccc2N1Cc1ccccc1`, for which the Her2 inhibition in test [1] was -25% (inactive). In test [2], the EC50 was over 9.62 µM.
In the case of `Cc1cccc(C)c1NC1=NCCCS1`, the Her2 inhibition in test [1] is 6.69% (inactive). This molecule also displayed an EC50 in test [2] of over 9.62 µM.
As for `Cc1ccc2nc(Nc3ccccc3)c(/C=N/O)c(=O)n2c1`, in test [1], the Her2 inhibition was -10.3% (inactive). Further, in test [2], the EC50 is over 9.62 µM.
On to `CCc1ccc(-c2nc(CN3CCC(C(=O)N4CCN(c5ccccc5)CC4)CC3)c(C)o2)cc1`, for which, in test [1], the Her2 inhibition was -74% (inactive). In test [2], the EC50 is over 9.62 µM.
Regarding `COc1ccc(CCN2CCC(Nc3nc4ccccc4n3Cc3ccc(F)cc3)CC2)cc1`, the Her2 inhibition in test [1] was -28.9% (inactive). Also, in test [2], the EC50 is over 9.62 µM.
As to `C=C(C)COc1ccc(-c2n[nH]c(C)c2-c2ccccc2)c(O)c1`, in test [1], the Her2 inhibition is -3.91% (inactive). Further, in test [2], the EC50 was over 9.62 µM.
Regarding `CC(C)(C)OC(=O)NCCc1nnc(S(=O)(=O)Cc2ccc(Cl)cc2Cl)o1`, in test [1], the Her2 inhibition was -15.5% (inactive). For the same molecule, the EC50 in test [2] was over 9.62 µM.
As for `CCOC(=O)c1ccc(N=c2sc(C(=O)OC)cc(=O)n2Cc2ccco2)cc1`, the Her2 inhibition in test [1] is -0.92% (inactive). Also, the EC50 in test [2] is over 9.62 µM.
The corresponding values for `CC1(C)CC(=O)C2=C(C1)OC1=C(C(=O)CC(C)(C)C1)C2c1ccc(O)cc1O` are 10.8% (inactive) and over 9.62 µM.
The corresponding values for `N=c1c2c(-c3ccccc3)c(-c3ccccc3)n(Cc3ccco3)c2ncn1Cc1ccco1` are -27.8% (inactive) and over 9.62 µM.
The corresponding values for `CS(=O)(=O)c1ccc(Cl)c(NC(=O)COC(=O)CNC(=O)c2ccc(Br)o2)c1` are 5.14% (inactive) and over 9.62 µM.
For the molecule `N#CC(C#N)=c1ccc2c(c1)N1C3=C(CCCC3)CC3CCCCC31N=2` (stereo not given), in test [1], the Her2 inhibition is 24.3% (inactive). The molecule also had an EC50 in test [2] of over 9.62 µM.
With `Cc1c(NC(=O)c2cccc(F)c2)c(=O)n(-c2ccccc2)n1C`, in test [1], the Her2 inhibition is 10.6% (inactive). The concentration for a half-maximal effect (EC50) in test [2] is over 9.62 µM.
The corresponding values for `Cc1cc(-c2ccccc2)nc(=O)[nH]1` are -18.4% (inactive) and over 9.62 µM.
The corresponding values for `CCOC(=O)C(C(C)=O)c1c(Br)c(O)c(O)c2c(C(=O)c3ccc(C)cc3)coc12` (stereo not given) are 46.1% (inactive) and over 9.62 µM.
The corresponding values for `Cc1ccc(/C=C/C2=Cc3c(sc(NC(=O)CSc4n[nH]c(N)n4)c3C#N)C(C)(C)C2)o1` are -0.68% (inactive) and over 9.62 µM.
Take `CC1(C)CCCC2=C1CC1C(=O)N(Cc3cccnc3)C(=O)C1C2` (stereo not given): in test [1], the Her2 inhibition is -13.3% (inactive). In test [2], this molecule yielded an EC50 of over 9.62 µM.
In the case of `COC(=O)c1[nH]c2ccc(Br)cc2c1NC(=O)C(C)N1CCN(C2CCCCC2)CC1` (stereo not given), the Her2 inhibition in test [1] was -20.7% (inactive). In addition, in test [2], the EC50 is over 9.62 µM.
The corresponding values for `Cc1ccc(S(=O)(=O)CCC(=O)c2ccc(O)cc2O)cc1` are 1.34% (inactive) and over 9.62 µM.
With `CC(C)N1CCC2(CC1)N=C(c1ccc3c(c1)OCO3)CC(c1cc(Cl)ccc1O)N2` (stereo not given), in test [1], the Her2 inhibition was 20.5% (inactive). Also, in test [2], the EC50 is over 9.62 µM.
The corresponding values for `Oc1cccc2ccc(Nc3ccccn3)nc12` are 31.3% (inactive) and over 9.62 µM.
Take `COc1ccc(CSc2nnnn2Cc2ccccc2)cc1OC`: the Her2 inhibition in test [1] was -31.4% (inactive). For the same molecule, in test [2], the EC50 was over 9.62 µM.
The corresponding values for `O=C(CCCCCn1c(=S)[nH]c2cc3c(cc2c1=O)OCO3)N1CCN(C2CCCCC2)CC1` are 4.12% (inactive) and over 9.62 µM.
In the case of `c1ccc2cc(OCCN3CCCC3)ccc2c1`, the Her2 inhibition in test [1] was -36.3% (inactive). The molecule also returned an EC50 in test [2] of over 9.62 µM.
With `[O-][N+]1=c2ccc(Nc3ccccc3)cc2=NC12CCCCC2`, the Her2 inhibition in test [1] is -11% (inactive). The molecule also displayed an EC50 in test [2] of over 9.62 µM.
Take `COc1ccccc1C(CC(=O)Nc1nccs1)c1ccco1` (stereo not given): in test [1], the Her2 inhibition was 3.82% (inactive). Besides, the EC50 in test [2] was over 9.62 µM.
Regarding `CC(=O)C(Sc1ncnc2c1nnn2-c1ccc(F)cc1)C(=O)N(C)C` (stereo not given), in test [1], the Her2 inhibition was -16.5% (inactive). The same molecule showed an EC50 in test [2] of over 9.62 µM.
The corresponding values for `CCOC(=O)CSc1nnc(-c2ccc(NS(=O)(=O)c3ccc(C)cc3)cc2)o1` are 7.81% (inactive) and over 9.62 µM.
The corresponding values for `N#Cc1ccc(-c2ccco2)nc1SCc1ccccc1` are 14.8% (inactive) and over 9.62 µM.
Consider `O=S(=O)(CCSc1ccccn1)c1nc2ccccc2s1`, for which the Her2 inhibition in test [1] is 12.7% (inactive). For the same molecule, the EC50 in test [2] was over 9.62 µM.
The corresponding values for `CCCn1c(Nc2nc3ccccc3n2C)nc2ccccc21` are -10.1% (inactive) and over 9.62 µM.
The corresponding values for `CC(C)N(Cc1nc(-c2ccccc2)no1)C(=O)CN1C(=O)c2ccccc2C1=O` are -1.52% (inactive) and over 9.62 µM.
Regarding `CN1CC2=Cc3ccccc3OC23Oc2ccccc2C=C3C1`, the Her2 inhibition in test [1] was -10.3% (inactive). This molecule returned an EC50 in test [2] of over 9.62 µM.
The corresponding values for `N#Cc1c(N)sc(=S)c2c1CCN(Cc1ccccc1)C2` are -20.9% (inactive) and over 9.62 µM.
As to `O=C(CCn1[nH]c(=O)c2ccccc2c1=O)OC1CCCCC1`, the Her2 inhibition in test [1] was -7.62% (inactive). This molecule also showed a 50% effective concentration (EC50) in test [2] of over 9.62 µM.
